BindingDB's records for PubMed 34146913 (National Institute of Pharmaceutical Education and Research …, 2021)

Experiments:
[1] = Inhibition of DC-SIGN extracellular domain (unknown origin) by SPR analysis
[2] = Inhibition of DC-SIGN extracellular domain (unknown origin) expressed in Escherichia coli DE3(BL21) incubated for 1 hrs in presence of Man-Fl-BSA by high-throughput fluorescence-based assay

Compound | Kd [1] | IC50 [2]
N=c1c(C(=O)NCCc2cn3c(n2)SCC3)cnc2sccn12 | 400 µM | –
CN1CCN(c2ccc(/C=C3\Sc4ccccc4C3=O)cc2[N+](=O)[O-])CC1 | – | 10 µM
COC(=O)c1ccc(-c2ccc(/C=C3\C(=O)N(c4ccc(S(N)(=O)=O)cc4)N=C3C(F)(F)F)o2)cc1 | – | 32 µM
O=C(NCCc1c[nH]c2ccccc12)c1c(O)nc2sccn2c1=O | 180 µM | –

Results, then the compound that gave them:

Kd [1] | IC50 [2] | Compound
– | 2.6 µM | NOC(=O)c1ccc(CCCC2Nc3ccc(C(=O)N4CCN(c5ncccn5)CC4)cc3NC2=O)cc1 (centres undefined)
– | 7.3 µM | O=C1Nc2cc(C(=O)N3CCN(c4ccccc4)CC3)ccc2NC1CSCc1c(F)cccc1Cl (centres undefined)
– | 6.1 µM | Cc1ccc(N(C)S(=O)(=O)c2ccc3[nH]cc(C(=O)N4CCN(c5ccccc5)CC4)c(=O)c3c2)cc1C
– | 4.4 µM | COc1ccccc1N1CCN(C(=O)c2ccc3c(c2)NC(=O)C(CCCc2ccccc2C)N3)CC1 (centres undefined)
– | 1.6 µM | CCC(=O)Nc1nc(C)c(-c2csc(Nc3ccc(N(C)C)cc3)n2)s1
